Experimental findings from ChEMBL document CHEMBL1144131, “The taxane diterpenoids” (J Nat Prod, 1999) are described below.

The structures appear in SMILES notation. Converted amounts (≈) assume the structure as drawn.

This test relates to P388. The experiment in a line: Cytotoxicity against mouse P388 cells. Format: functional, cell-based.
`CC(=O)O[C@@H]1C2=C(C)C(=O)C[C@@](O)([C@@H](OC(=O)c3ccccc3)[C@@H]3[C@]4(OC(C)=O)CO[C@@H]4C[C@H](O)[C@@]3(C)[C@H]1O)C2(C)C`: inhibition was half-maximal at 21 µg/mL (≈ 35.8 µM) (IC50). The result for `CC(=O)O[C@H]1C[C@H]2OC[C@@]2(OC(C)=O)[C@H]2[C@H](OC(=O)c3ccccc3)[C@]3(C(C)(C)O)C[C@H](O)C(C)=C3[C@@H](O)[C@H](O)[C@]12C` reads 44 µg/mL (≈ 74.7 µM); that for `C=C1[C@@H](OC(=O)/C=C/c2ccccc2)C[C@H](OC(C)=O)[C@@]2(C)[C@@H](OC(C)=O)[C@H](OC(C)=O)C3=C(C)[C@@H](OC(C)=O)C[C@@H]([C@@H](O)[C@H]12)C3(C)C`, 3.9 µg/mL (≈ 5.85 µM).
